Numbers after ± are expanded uncertainties.
What was measured:
[1] = 101.33 kPa, Liquid
[2] = refractive index (Na D-line) (dimensionless); details: 293.15 K; 101.33 kPa; Liquid; Standard Abbe refractometry

mass density ([1]; 298.15 K) [kg/m3] | refractive index [2] | mass density ([1]; 293.15 K) [kg/m3] | Structure (SMILES)
866.4 ± 0.5 | 1.3751 ± 0.0007 |  | CC(=O)OC(C)C [1-methylethyl ethanoate]
969.2 ± 0.3 | 1.383 ± 0.0007 |  | CCOC(=O)OCC [diethyl carbonate]
 | 1.3592 ± 0.0007 | 789.4 ± 0.6 | CCO [ethanol]
 | 1.3899 ± 0.0007 | 879 ± 0.5 | CCCC(=O)OCC [ethyl butanoate]

From the NIST ThermoML archive (doi:10.1016/j.fluid.2005.05.018)
